Here are results for eight compounds from patent US10406136B2 (priority 2013, dated 2019).

In general, IC50 refers to the midpoint of a concentration-inhibition curve.

SMILES strings stand for the structures.

In test [1] the target is T1, neuraminidase (EC. 3.2.1.8, C. perfringens, SIGMA, N2876) (Clostridium perfringens, UniProt A0A0H2YQR1). Type of test: biochemical. The note with it: Lineweaver-Burk and Dixon plots.
Test [2] has as its target T1, neuraminidase (EC. 3.2.1.8, C. perfringens, SIGMA, N2876). Type of test: biochemical.

T1 sequence (A0A0H2YQR1 1-694): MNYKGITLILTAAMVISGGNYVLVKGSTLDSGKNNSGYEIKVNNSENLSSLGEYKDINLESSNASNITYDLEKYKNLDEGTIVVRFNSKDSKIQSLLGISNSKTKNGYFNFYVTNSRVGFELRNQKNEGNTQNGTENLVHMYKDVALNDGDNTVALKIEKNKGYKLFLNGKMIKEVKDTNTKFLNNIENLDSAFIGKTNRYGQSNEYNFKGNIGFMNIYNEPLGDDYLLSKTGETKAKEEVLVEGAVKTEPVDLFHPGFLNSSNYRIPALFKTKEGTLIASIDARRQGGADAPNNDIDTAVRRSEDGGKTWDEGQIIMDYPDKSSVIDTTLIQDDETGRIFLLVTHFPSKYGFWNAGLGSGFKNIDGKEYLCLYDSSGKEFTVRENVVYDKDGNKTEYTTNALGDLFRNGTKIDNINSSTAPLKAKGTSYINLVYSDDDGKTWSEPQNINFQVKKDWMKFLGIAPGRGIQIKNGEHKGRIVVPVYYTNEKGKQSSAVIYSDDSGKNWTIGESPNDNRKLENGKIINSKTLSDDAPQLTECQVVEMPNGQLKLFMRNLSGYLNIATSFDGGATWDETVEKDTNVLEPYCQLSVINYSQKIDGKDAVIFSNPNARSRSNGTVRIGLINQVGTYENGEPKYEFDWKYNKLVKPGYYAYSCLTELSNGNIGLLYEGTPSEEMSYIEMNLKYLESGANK

`CC(C)=CCC/C(C)=C/Cc1c(O)cc2c(c1O)C(=O)CC(c1ccc(O)cc1)O2` (stereo not shown) [Compound 7, mimulone]: in test [1], the “Inhibition (type)” value is “Competitive”. `COc1ccc(C2CC(=O)c3c(cc(O)c(C/C=C(\C)CCC=C(C)C)c3O)O2)cc1O` (stereo not shown) [Compound 5, 4′-O-methyldiplacone]: it took 12.9 ± 0.4 µM to reach half-maximal inhibition in test [2] (IC50). The “Inhibition (type)” value in test [1] is given as “Competitive”.

For `COc1cc(C2CC(=O)c3c(cc(O)c(C/C=C(\C)CCC=C(C)C)c3O)O2)ccc1O` (stereo not shown) [Compound 4, 3′-O-methyldiplacone], the “Inhibition (type)” value in test [1] is reported as “Competitive”.

As for `COc1cc(C2CC(=O)c3c(cc(O)c(C/C=C(\C)CCC=C(C)C)c3O)O2)cc(OC)c1O` (stereo not shown) [Compound 9, 6-geranyl-4′,5,7-trihydroxy-3′,5′-dimethoxyflavanone], the “Inhibition (type)” value in test [1] was “Competitive”. The same measure, in the same setting: next, `COc1cc(C2Oc3cc(O)c(C/C=C(\C)CCC=C(C)C)c(O)c3C(=O)[C@@H]2O)ccc1O` (stereo partly shown) [Compound 1, 3′-O-methyldiplacol]: “Competitive”.

In the case of `CC(C)=CCC/C(C)=C/Cc1c(O)cc2c(c1O)C(=O)CC(c1ccc(O)c(O)c1)O2` (stereo not shown) [Compound 8, diplacone], the IC50 in test [2] was determined as 0.11 ± 0.003 µM. The “Inhibition (type)” value in test [1] was “Competitive”.

Turning to `COc1ccc(C2Oc3cc(O)c(C/C=C(\C)CCC=C(C)C)c(O)c3C(=O)[C@@H]2O)cc1O` (stereo partly shown) [Compound 2, 4′-O-methyldiplacol], the “Inhibition (type)” value in test [1] is “Competitive”. Take `COc1c(O)cc(C2CC(=O)c3c(cc(O)c(C/C=C(\C)CCC=C(C)C)c3O)O2)cc1O` (stereo not shown) [Compound 6, 6-geranyl-3′,5,5′,7-tetrahydroxy-4′-methoxyflavanone]: the “Inhibition (type)” value in test [1] is “Competitive”.
